Square brackets hold non-standard residues; d marks the D form. Peptide text beside a SMILES is read from it. * marks the point of attachment. DON = [N-]=[N+]=CC(=O)CC[C@H](N)C(=O)O; Cbz = O=C(OCc1ccccc1)*
Assays:
Assay in all cases: ELISA, pentylamine-biotin incorporation into coated N,N-dimethylcasein
Assay type in all cases: biochemical
zTG2b [1] = target: T1, zTG2b (Danio rerio, UniProt A0ACM8QA61); settings: amine co-substrate with N,N-dimethylcasein; 5 mM CaCl2, 10 mM DTT, pH 8.0, 37 °C
T1 construct: gene tgm2b; full-length CDS in pET30a(+), His6-tagged (text: C-terminal His-tag; reverse primer keeps stop codon), E. coli BL21(DE3), Ni-NTA; primer-encoded N-terminus MALDIG, C-terminus VIIGK
T1 sequence (A0ACM8QA61 1-679): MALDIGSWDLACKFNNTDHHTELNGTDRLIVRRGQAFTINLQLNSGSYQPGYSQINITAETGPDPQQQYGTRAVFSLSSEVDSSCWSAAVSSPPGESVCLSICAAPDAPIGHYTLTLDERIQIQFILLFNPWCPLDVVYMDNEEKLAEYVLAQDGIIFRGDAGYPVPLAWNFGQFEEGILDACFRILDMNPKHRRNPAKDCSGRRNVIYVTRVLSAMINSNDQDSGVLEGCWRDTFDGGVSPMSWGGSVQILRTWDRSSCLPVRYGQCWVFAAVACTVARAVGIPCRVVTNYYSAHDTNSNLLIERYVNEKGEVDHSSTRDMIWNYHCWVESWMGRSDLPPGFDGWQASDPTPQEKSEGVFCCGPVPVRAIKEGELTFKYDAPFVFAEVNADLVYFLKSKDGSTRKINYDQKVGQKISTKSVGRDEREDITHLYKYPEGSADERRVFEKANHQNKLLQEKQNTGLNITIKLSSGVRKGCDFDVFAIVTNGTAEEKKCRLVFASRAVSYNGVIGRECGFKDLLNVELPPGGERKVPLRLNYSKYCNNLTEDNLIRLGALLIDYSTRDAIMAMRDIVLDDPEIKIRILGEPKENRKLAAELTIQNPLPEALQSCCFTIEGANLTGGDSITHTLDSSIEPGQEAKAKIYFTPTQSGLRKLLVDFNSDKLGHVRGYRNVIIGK
Source text: ELISA, pentylamine-biotin incorporation into coated N,N-dimethylcasein on zTG2b | incorporate pentylamine-biotin into the substrate N,N-dimethylcasein in solution. All three zebrafish TGs2

zTG2a [2] = target: T2, zTG2a (Danio rerio, UniProt Q66L63); settings: amine co-substrate with N,N-dimethylcasein; 5 mM CaCl2, 10 mM DTT, pH 8.0, 37 °C
T2 construct: gene tgm2a; full-length CDS in pET30a(+), His6-tagged (text: C-terminal His-tag; reverse primer keeps stop codon), E. coli BL21(DE3), Ni-NTA; primer-encoded N-terminus MERVVE, C-terminus LVIYE
T2 sequence (Q66L63 1-679): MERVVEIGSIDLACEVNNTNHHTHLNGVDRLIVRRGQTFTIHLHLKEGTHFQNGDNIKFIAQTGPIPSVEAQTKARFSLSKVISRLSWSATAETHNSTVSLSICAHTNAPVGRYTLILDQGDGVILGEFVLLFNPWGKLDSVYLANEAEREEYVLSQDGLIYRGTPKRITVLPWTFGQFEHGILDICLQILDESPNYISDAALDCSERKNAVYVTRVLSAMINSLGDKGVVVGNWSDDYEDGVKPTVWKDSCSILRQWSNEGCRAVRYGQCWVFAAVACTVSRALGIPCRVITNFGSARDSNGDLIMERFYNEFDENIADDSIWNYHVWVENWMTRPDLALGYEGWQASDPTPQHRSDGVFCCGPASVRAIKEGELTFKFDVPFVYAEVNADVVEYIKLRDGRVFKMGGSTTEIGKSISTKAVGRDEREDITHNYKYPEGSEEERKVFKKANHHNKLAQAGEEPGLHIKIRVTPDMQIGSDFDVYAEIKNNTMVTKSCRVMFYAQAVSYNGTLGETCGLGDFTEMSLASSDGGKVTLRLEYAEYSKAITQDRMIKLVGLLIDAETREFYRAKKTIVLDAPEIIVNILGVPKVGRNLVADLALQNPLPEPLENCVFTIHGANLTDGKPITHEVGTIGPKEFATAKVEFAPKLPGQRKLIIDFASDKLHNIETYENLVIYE
Source text: ELISA, pentylamine-biotin incorporation into coated N,N-dimethylcasein on zTG2a | incorporate pentylamine-biotin into the substrate N,N-dimethylcasein in solution. All three zebrafish TGs2

zTG2like [3] = target: T3, zTG2like (Danio rerio, UniProt A3KQ87); settings: amine co-substrate with N,N-dimethylcasein; 5 mM CaCl2, 10 mM DTT, pH 8.0, 37 °C
T3 construct: gene tgm2l; full-length CDS in pET30a(+), His6-tagged (text: C-terminal His-tag; reverse primer keeps stop codon), E. coli BL21(DE3), Ni-NTA; primer-encoded N-terminus MASYNA, C-terminus AVPEI
T3 sequence (A3KQ87 1-692): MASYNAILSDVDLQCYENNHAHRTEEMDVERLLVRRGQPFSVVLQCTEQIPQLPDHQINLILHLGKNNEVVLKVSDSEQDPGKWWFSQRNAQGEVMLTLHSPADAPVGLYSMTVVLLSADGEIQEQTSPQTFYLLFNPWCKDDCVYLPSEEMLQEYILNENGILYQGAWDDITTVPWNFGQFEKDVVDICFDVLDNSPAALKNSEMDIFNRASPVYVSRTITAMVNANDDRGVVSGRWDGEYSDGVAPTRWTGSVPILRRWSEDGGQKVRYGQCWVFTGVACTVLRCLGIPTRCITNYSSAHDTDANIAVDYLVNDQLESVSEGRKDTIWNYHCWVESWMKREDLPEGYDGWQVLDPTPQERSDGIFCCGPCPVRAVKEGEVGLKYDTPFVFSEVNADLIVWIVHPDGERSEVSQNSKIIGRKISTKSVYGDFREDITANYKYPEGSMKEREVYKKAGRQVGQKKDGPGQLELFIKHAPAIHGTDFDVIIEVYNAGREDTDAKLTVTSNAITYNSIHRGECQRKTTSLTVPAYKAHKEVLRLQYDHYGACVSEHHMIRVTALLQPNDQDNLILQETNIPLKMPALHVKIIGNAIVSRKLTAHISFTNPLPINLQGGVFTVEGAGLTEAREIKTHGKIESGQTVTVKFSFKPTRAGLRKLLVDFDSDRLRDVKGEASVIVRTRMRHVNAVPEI
Source text: ELISA, pentylamine-biotin incorporation into coated N,N-dimethylcasein on zTG2like | incorporate pentylamine-biotin into the substrate N,N-dimethylcasein in solution. All three zebrafish TGs2

hTG2 [4] = target: T4, hTG2 (Homo sapiens, UniProt P21980); settings: amine co-substrate with N,N-dimethylcasein; 5 mM CaCl2, 10 mM DTT, pH 8.0, 37 °C
T4 construct: gene TGM2; recombinant hTG2 used as positive control; source and tag of purified protein not detailed; 77 kDa
T4 sequence (P21980 2-687): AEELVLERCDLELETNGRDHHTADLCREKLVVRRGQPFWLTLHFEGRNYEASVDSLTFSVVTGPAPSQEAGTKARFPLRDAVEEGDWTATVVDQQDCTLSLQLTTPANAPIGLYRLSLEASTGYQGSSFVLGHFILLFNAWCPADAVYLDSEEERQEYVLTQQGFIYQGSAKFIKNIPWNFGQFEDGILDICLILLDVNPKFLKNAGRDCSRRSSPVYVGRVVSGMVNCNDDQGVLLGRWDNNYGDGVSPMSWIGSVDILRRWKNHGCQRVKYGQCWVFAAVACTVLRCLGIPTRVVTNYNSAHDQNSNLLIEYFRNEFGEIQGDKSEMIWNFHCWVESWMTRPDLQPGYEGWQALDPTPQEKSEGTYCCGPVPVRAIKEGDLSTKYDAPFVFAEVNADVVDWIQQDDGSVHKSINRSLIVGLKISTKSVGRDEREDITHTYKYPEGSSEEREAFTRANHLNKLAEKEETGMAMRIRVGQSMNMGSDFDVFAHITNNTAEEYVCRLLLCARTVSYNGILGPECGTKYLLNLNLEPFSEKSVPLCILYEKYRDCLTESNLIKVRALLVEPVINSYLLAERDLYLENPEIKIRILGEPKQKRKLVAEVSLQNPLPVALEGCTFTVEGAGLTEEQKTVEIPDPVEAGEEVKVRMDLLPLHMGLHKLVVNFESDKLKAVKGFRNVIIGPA

hTG2 [5] = target: T4, hTG2; settings: 50 ng enzyme, 0.2 mM pentylamine-biotin, 5 mM CaCl2, 10 mM DTT, pH 8.0, 37 °C, 1 h; GTP 100 µM (methods) or 100 mM (figure legend)
zTG2a [6] = target: T2, zTG2a; settings: 50 ng enzyme, 0.2 mM pentylamine-biotin, 5 mM CaCl2, 10 mM DTT, pH 8.0, 37 °C, 1 h; GTP 100 µM (methods) or 100 mM (figure legend)
zTG2like [7] = target: T3, zTG2like
zTG2a [8] = target: T2, zTG2a
zTG2b [9] = target: T1, zTG2b; settings: 50 ng enzyme, 0.2 mM pentylamine-biotin, 5 mM CaCl2, 10 mM DTT, pH 8.0, 37 °C, 1 h; methods print inhibitor doses as mM

NCCCCCNC(=O)CCCC[C@@H]1SC[C@@H]2NC(=O)N[C@@H]21 [pentylamine-biotin]
ELISA, pentylamine-biotin incorporation into coated N,N-dimethylcasein (zTG2b [1]): incorporate pentylamine-biotin into the substrate N,N-dimethylcasein in solution. All three zebrafish TGs2
ELISA, pentylamine-biotin incorporation into coated N,N-dimethylcasein (zTG2a [2]): incorporate pentylamine-biotin into the substrate N,N-dimethylcasein in solution. All three zebrafish TGs2
ELISA, pentylamine-biotin incorporation into coated N,N-dimethylcasein (zTG2like [3]): incorporate pentylamine-biotin into the substrate N,N-dimethylcasein in solution. All three zebrafish TGs2
ELISA, pentylamine-biotin incorporation into coated N,N-dimethylcasein (hTG2 [4]): as well as the human enzyme were able to mediate the transamidation reaction

Nc1nc2c(ncn2[C@@H]2O[C@H](COP(=O)(O)OP(=O)(O)OP(=O)(O)O)[C@@H](O)[C@H]2O)c(=O)[nH]1 [GTP]
% inhibition (hTG2 [5]): the inhibitory effect of GTP was only one third of that observed for the human enzyme
% inhibition (zTG2a [6]): zTG2a is the only zebrafish TG2 whose activity is affected by the presence of GTP

COC(=O)[C@H](CC(C)C)NC(=O)[C@@H]1CCCN1C(=O)[C@@H](NC(=O)[C@H](CCC(=O)C=[N+]=[N-])NC(=O)OCc1ccccc1)C(C)C [ZDON] (Cbz-[DON]VPL-OMe)
inhibition at 25 µM (zTG2like [7]): ~50%
inhibition at 25 µM (zTG2a [8]): ~50%
% inhibition at 25 μM (zTG2b [9]): ~ 50%

From article PMC10419279, “Biochemical and Functional Characterization of the Three Zebrafish Transglutaminases 2” (International Journal of Molecular Sciences, 2023)
